# Measured values as given in PubChem BioAssay (NCI).
#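 Interpolation was linear, between the two tested concentrations surrounding the appropriate level; five concentrations were tested over 48 hours in 96-well plates. Definition used: TGI = concentration required for complete inhibition of growth.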
# What was measured:
# Experiment in all cases: NCI tumour cell line growth inhibition, 48 h
# KM12 colon = tested on: KM12 colon
# OVCAR-5 ovarian = tested on: OVCAR-5 ovarian
# HL-60(TB) leukemia = tested on: HL-60(TB) leukemia
# SK-MEL-5 melanoma = tested on: SK-MEL-5 melanoma
# SNB-75 CNS = tested on: SNB-75 CNS
# SN12C renal = tested on: SN12C renal
# NCI-H23 lung = tested on: NCI-H23 lung
# T-47D breast = tested on: T-47D breast
# SF-295 CNS = tested on: SF-295 CNS
# DU-145 prostate = tested on: DU-145 prostate
# NCI/ADR-RES ovarian = tested on: NCI/ADR-RES ovarian
# PC-3 prostate = tested on: PC-3 prostate
# HOP-92 NSCLC = tested on: HOP-92 NSCLC
# NCI-H522 lung = tested on: NCI-H522 lung
# EKVX NSCLC = tested on: EKVX NSCLC
# UACC-62 melanoma = tested on: UACC-62 melanoma
# MOLT-4 leukemia = tested on: MOLT-4 leukemia
# 786-0 renal = tested on: 786-0 renal
smiles,measurement,setting,value
N#Cc1ccc(C2ON=C(c3ccccc3)N2C23CC4CC(CC(C4)C2)C3)cc1 (stereo not drawn),TGI,KM12 colon,> 10 µM
same,TGI,OVCAR-5 ovarian,> 10 µM
same,TGI,HL-60(TB) leukemia,> 10 µM
same,TGI,SK-MEL-5 melanoma,> 10 µM
same,TGI,SNB-75 CNS,> 10 µM
same,TGI,SN12C renal,> 10 µM
same,TGI,NCI-H23 lung,> 10 µM
same,TGI,T-47D breast,> 10 µM
same,TGI,SF-295 CNS,> 10 µM
same,TGI,DU-145 prostate,> 10 µM
same,TGI,NCI/ADR-RES ovarian,> 10 µM
same,TGI,PC-3 prostate,> 10 µM
same,TGI,HOP-92 NSCLC,> 10 µM
same,TGI,NCI-H522 lung,> 10 µM
same,TGI,EKVX NSCLC,> 10 µM
same,TGI,UACC-62 melanoma,> 10 µM
same,TGI,MOLT-4 leukemia,> 10 µM
same,TGI,786-0 renal,> 10 µM
C/C(O)=C(/C=N/C(=S)Nc1ccccc1)C(=O)Nc1ccccc1C,TGI,KM12 colon,> 100 µM
same,TGI,OVCAR-5 ovarian,> 100 µM
same,TGI,HL-60(TB) leukemia,> 100 µM
same,TGI,SK-MEL-5 melanoma,> 100 µM
same,TGI,SNB-75 CNS,> 100 µM
same,TGI,SN12C renal,> 100 µM
same,TGI,NCI-H23 lung,> 100 µM
same,TGI,T-47D breast,> 100 µM
same,TGI,SF-295 CNS,> 100 µM
same,TGI,DU-145 prostate,> 100 µM
same,TGI,NCI/ADR-RES ovarian,> 100 µM
same,TGI,PC-3 prostate,> 100 µM
same,TGI,HOP-92 NSCLC,> 100 µM
same,TGI,NCI-H522 lung,> 100 µM
same,TGI,EKVX NSCLC,> 100 µM
same,TGI,UACC-62 melanoma,> 100 µM
same,TGI,MOLT-4 leukemia,> 100 µM
same,TGI,786-0 renal,> 100 µM
S=C(NCCc1ccccn1)N/N=C(\c1ccccc1)c1ccccn1,TGI,KM12 colon,> 91.5 µM
same,TGI,OVCAR-5 ovarian,> 100 µM
same,TGI,HL-60(TB) leukemia,> 100 µM
same,TGI,SK-MEL-5 melanoma,40.2 µM
same,TGI,SNB-75 CNS,> 78 µM
same,TGI,SN12C renal,> 67.3 µM
same,TGI,NCI-H23 lung,> 27.3 µM
same,TGI,T-47D breast,> 75.7 µM
same,TGI,SF-295 CNS,> 55.7 µM
same,TGI,DU-145 prostate,> 48.6 µM
same,TGI,NCI/ADR-RES ovarian,1.44 µM
same,TGI,PC-3 prostate,> 100 µM
same,TGI,HOP-92 NSCLC,> 55.7 µM
same,TGI,NCI-H522 lung,> 100 µM
same,TGI,EKVX NSCLC,> 71.6 µM
same,TGI,UACC-62 melanoma,> 24.4 µM
same,TGI,MOLT-4 leukemia,> 78.6 µM
same,TGI,786-0 renal,> 56.8 µM
CC(=O)Nc1ccc(S(=O)(=O)c2nnc(NC(C)=O)s2)cc1,TGI,KM12 colon,> 100 µM
same,TGI,OVCAR-5 ovarian,> 100 µM
same,TGI,HL-60(TB) leukemia,> 100 µM
same,TGI,SK-MEL-5 melanoma,> 100 µM
same,TGI,SNB-75 CNS,> 100 µM
same,TGI,SN12C renal,> 100 µM
same,TGI,NCI-H23 lung,> 100 µM
same,TGI,T-47D breast,> 100 µM
same,TGI,SF-295 CNS,> 100 µM
same,TGI,DU-145 prostate,> 100 µM
same,TGI,NCI/ADR-RES ovarian,> 100 µM
same,TGI,PC-3 prostate,> 100 µM
same,TGI,HOP-92 NSCLC,> 100 µM
same,TGI,NCI-H522 lung,> 100 µM
same,TGI,EKVX NSCLC,> 100 µM
same,TGI,UACC-62 melanoma,> 100 µM
same,TGI,MOLT-4 leukemia,> 100 µM
same,TGI,786-0 renal,> 100 µM
Cc1n[nH]c(=O)n1C1CC1,TGI,KM12 colon,> 100 µM
same,TGI,OVCAR-5 ovarian,> 100 µM
same,TGI,HL-60(TB) leukemia,> 100 µM
same,TGI,SK-MEL-5 melanoma,> 100 µM
same,TGI,SNB-75 CNS,> 100 µM
same,TGI,SN12C renal,> 100 µM
same,TGI,NCI-H23 lung,> 100 µM
same,TGI,T-47D breast,> 100 µM
same,TGI,SF-295 CNS,> 100 µM
same,TGI,DU-145 prostate,> 100 µM
same,TGI,NCI/ADR-RES ovarian,> 100 µM
same,TGI,PC-3 prostate,> 100 µM
same,TGI,HOP-92 NSCLC,> 100 µM
same,TGI,NCI-H522 lung,> 100 µM
same,TGI,EKVX NSCLC,> 100 µM
same,TGI,UACC-62 melanoma,> 100 µM
same,TGI,MOLT-4 leukemia,> 100 µM
same,TGI,786-0 renal,> 100 µM
Cn1cc(NC(=O)Nc2cc(C(=O)Nc3cc(C(=O)Nc4ccc5cc(S(=O)(=O)O)cc(S(=O)(=O)O)c5c4)n(C)c3)n(C)c2)cc1C(=O)Nc1cc(C(=O)Nc2ccc3cc(S(=O)(=O)O)cc(S(=O)(=O)O)c3c2)n(C)c1,TGI,KM12 colon,> 100 µM
same,TGI,OVCAR-5 ovarian,> 100 µM
same,TGI,HL-60(TB) leukemia,> 100 µM
same,TGI,SK-MEL-5 melanoma,> 100 µM
same,TGI,SNB-75 CNS,> 100 µM
same,TGI,SN12C renal,> 100 µM
same,TGI,NCI-H23 lung,> 100 µM
same,TGI,T-47D breast,> 100 µM
same,TGI,SF-295 CNS,> 100 µM
same,TGI,DU-145 prostate,> 100 µM
same,TGI,NCI/ADR-RES ovarian,> 100 µM
same,TGI,PC-3 prostate,> 100 µM
same,TGI,HOP-92 NSCLC,> 100 µM
same,TGI,NCI-H522 lung,> 100 µM
same,TGI,EKVX NSCLC,> 100 µM
same,TGI,UACC-62 melanoma,> 100 µM
same,TGI,MOLT-4 leukemia,> 100 µM
same,TGI,786-0 renal,> 100 µM
COCN1C(=O)[C@@H]2C[C@@H](O)CN2C(=O)c2ccccc21,TGI,KM12 colon,> 100 µM
same,TGI,OVCAR-5 ovarian,> 100 µM
same,TGI,HL-60(TB) leukemia,> 100 µM
same,TGI,SK-MEL-5 melanoma,> 100 µM
same,TGI,SNB-75 CNS,> 100 µM
same,TGI,SN12C renal,> 100 µM
same,TGI,NCI-H23 lung,> 100 µM
same,TGI,T-47D breast,> 100 µM
same,TGI,SF-295 CNS,> 100 µM
same,TGI,DU-145 prostate,> 100 µM
same,TGI,NCI/ADR-RES ovarian,> 100 µM
same,TGI,PC-3 prostate,> 100 µM
same,TGI,HOP-92 NSCLC,> 100 µM
same,TGI,NCI-H522 lung,> 100 µM
same,TGI,EKVX NSCLC,> 100 µM
same,TGI,UACC-62 melanoma,> 100 µM
same,TGI,MOLT-4 leukemia,> 100 µM
same,TGI,786-0 renal,> 100 µM
CCS1=C2C(=O)CC(C)(C)CC2=Nc2ccccc21 (stereo not drawn),TGI,KM12 colon,> 100 µM
same,TGI,OVCAR-5 ovarian,> 100 µM
same,TGI,HL-60(TB) leukemia,> 100 µM
same,TGI,SK-MEL-5 melanoma,> 100 µM
same,TGI,SNB-75 CNS,> 100 µM
same,TGI,SN12C renal,> 100 µM
same,TGI,NCI-H23 lung,> 100 µM
same,TGI,T-47D breast,> 100 µM
same,TGI,SF-295 CNS,> 100 µM
same,TGI,DU-145 prostate,> 100 µM
same,TGI,NCI/ADR-RES ovarian,> 100 µM
same,TGI,PC-3 prostate,> 100 µM
same,TGI,HOP-92 NSCLC,> 100 µM
same,TGI,NCI-H522 lung,> 100 µM
same,TGI,EKVX NSCLC,> 100 µM
same,TGI,UACC-62 melanoma,> 100 µM
same,TGI,MOLT-4 leukemia,> 100 µM
same,TGI,786-0 renal,> 100 µM
O=c1c2ccccc2n2c(-c3ccccc3O)nnc2n1-c1ccccc1,TGI,KM12 colon,> 100 µM
same,TGI,OVCAR-5 ovarian,> 100 µM
same,TGI,HL-60(TB) leukemia,> 100 µM
same,TGI,SK-MEL-5 melanoma,> 100 µM
same,TGI,SNB-75 CNS,> 100 µM
same,TGI,SN12C renal,> 100 µM
same,TGI,NCI-H23 lung,> 100 µM
same,TGI,T-47D breast,> 100 µM
same,TGI,SF-295 CNS,> 100 µM
same,TGI,DU-145 prostate,> 100 µM
same,TGI,NCI/ADR-RES ovarian,> 100 µM
same,TGI,PC-3 prostate,> 100 µM
same,TGI,HOP-92 NSCLC,> 100 µM
same,TGI,NCI-H522 lung,> 100 µM
same,TGI,EKVX NSCLC,> 100 µM
same,TGI,UACC-62 melanoma,> 100 µM
same,TGI,MOLT-4 leukemia,> 100 µM
same,TGI,786-0 renal,> 100 µM
Cc1cccc(N=Nc2c(C)nn(C(=O)CC(=O)Nc3ccc(Cl)cc3)c2C)c1,TGI,KM12 colon,> 100 µM
same,TGI,OVCAR-5 ovarian,> 100 µM
same,TGI,HL-60(TB) leukemia,> 100 µM
same,TGI,SK-MEL-5 melanoma,> 100 µM
same,TGI,SNB-75 CNS,95.9 µM
same,TGI,SN12C renal,> 100 µM
same,TGI,NCI-H23 lung,> 100 µM
same,TGI,T-47D breast,> 100 µM
same,TGI,SF-295 CNS,> 100 µM
same,TGI,DU-145 prostate,> 100 µM
same,TGI,NCI/ADR-RES ovarian,> 100 µM
same,TGI,PC-3 prostate,> 100 µM
same,TGI,HOP-92 NSCLC,79.6 µM
same,TGI,NCI-H522 lung,> 100 µM
same,TGI,EKVX NSCLC,96.9 µM
same,TGI,UACC-62 melanoma,> 100 µM
same,TGI,MOLT-4 leukemia,> 100 µM
same,TGI,786-0 renal,> 100 µM
Cc1[nH]c2ncn3[nH]c(=S)nc3c2c1Cc1ccccc1,TGI,KM12 colon,> 100 µM
same,TGI,OVCAR-5 ovarian,> 100 µM
same,TGI,HL-60(TB) leukemia,> 100 µM
same,TGI,SK-MEL-5 melanoma,> 100 µM
same,TGI,SNB-75 CNS,> 100 µM
same,TGI,SN12C renal,> 100 µM
same,TGI,NCI-H23 lung,> 100 µM
same,TGI,T-47D breast,> 100 µM
same,TGI,SF-295 CNS,> 100 µM
same,TGI,DU-145 prostate,> 100 µM
same,TGI,NCI/ADR-RES ovarian,> 100 µM
same,TGI,PC-3 prostate,> 100 µM
same,TGI,HOP-92 NSCLC,> 100 µM
same,TGI,NCI-H522 lung,> 100 µM
same,TGI,EKVX NSCLC,> 100 µM
same,TGI,UACC-62 melanoma,> 100 µM
same,TGI,MOLT-4 leukemia,> 100 µM
same,TGI,786-0 renal,> 100 µM
